The values below come from the NIST ThermoML archive (doi:10.1016/j.fluid.2015.08.007).

“And” between values parts separate entries of the source, which are not always exact repeats. Equal entries are not always repeated. ± gives the expanded uncertainty stated by the source.

For the first data set the following is noted: Crystal 1; DTA.
`CCCC[N+]1(C)CCCC1.[Br-]` [1-butyl-1-methylpyrrolidinium bromide]: the Normal melting temperature was 204 ± 2 °C.

Still in this data set, the particulars now being: Crystal; DTA.
For `CCCC[N+]1(C)CCCC1.[Br-]` [1-butyl-1-methylpyrrolidinium bromide], the Normal melting temperature amounted to 204 ± 2 °C.

Consider `CCCC[N+]1(C)CCCC1.[Cl-]` [1-butyl-1-methylpyrrolidinium chloride], for which the Normal melting temperature is 201 ± 2 °C and 204 ± 2 °C.

On to `CCCC[N+]1(C)CCCC1.F[B-](F)(F)F` [1-butyl-1-methylpyrrolidinium tetrafluoroborate], for which the Normal melting temperature is 152 ± 2 °C and 151 ± 2 °C. Consider `CC[N+]1(C)CCCC1.F[B-](F)(F)F` [1-ethyl-1-methylpyrrolidinium tetrafluoroborate], for which the Normal melting temperature was determined as 66 ± 2 °C. In the case of `CC[N+]1(C)CCCC1.O=S(=O)([N-]S(=O)(=O)C(F)(F)F)C(F)(F)F`, the Normal melting temperature was 91 ± 2 °C.
